Reference: patent US12617777B2, “GPR84 antagonists and uses thereof” (Liminal BioSciences Limited, priority 2021, dated 2026)

Target: T1, human GPR84 receptor (Homo sapiens, UniProt Q9NQS5)
T1 construct: host or cells: HEK293, transient transfection
Experiment: Gαi biosensor BRET assay in HEK293 cells (antagonism of ZQ-16)
Type: cell-based
Conditions: HEK293, single concentration 10 μM (designated F)
From the text: Background—The following assays can be used for determination of GPR84 activation in living HEK293 cells. The Gai BRET biosensor (Gagnon et al., 2018; Gales et al., 2006. Nat StructMol Biol. 13, 778-86; Saulieres et al., 2012. Nat Chem Biol. 8, 622-30) allows to directly monitor GPR84-mediated activation of Gai. The Gai biosensor consists of a Rluc8-tagged Gαi2 subunit, a GFP10-tagged Gγ2 subunit, and an untagged Gβ1. Agonist stimulation and GPR84 activation triggers a physical separation between the RLuc8-Gαi donor and the GFP10-Gγ2 acceptor, resulting in a decrease in BRET signal whose amplitude is correlated to ligand efficacy (Gales et al., 2006). Moreover, signaling functions of GPCRs are tightly regulated by endocytosis, the targeting of receptors to endosomes and their sorting to lysosomes or recycling to the plasma membrane. The early endosomes (EEs) trafficking assay (Namkung et al., 2016. Nat Commun. 7, 12178) uses Rluc8-tagged GPR84 and Renilla GFP (rGFP) attached to the FYVE domain from human endofin/zinc finger FYVE domain-containing protein 16, which binds phosphatidylinositol 3-phosphate in EEs. Agonist stimulation of GPR84-Rluc8 leads to trafficking of the receptor to EEs, and ensuing increase of the donor concentration relative to the rGFP-FYVE acceptor anchored in the same cellular compartment, and thus results in an increase in BRET signal.
Plasmids—The cDNA clones for human GPR84 receptor, human Gai2, Gp1, and Gy2 were obtained from the cDNA Resource Center (www.cdna.org). GFP10 (F64L, S147P, S202F and H231L variant of Aequorea victoria Green Fluorescent Protein) gBlocks gene fragments (Integrated DNA Technologies, IA) and linker were inserted in frame at the N-terminus of human Gγ2. Rluc8 (A55T, C124A, S130A, K136R, A143M, M185V, M253L, and S287L variant of the Renilla renformis luciferase) gBlocks gene fragment was inserted with linkers in frame in between residues 91 and 92 of Gai2 or at the C-terminus of GPR84. The FYVE domain from human endofin (residues Q739 to K806) attached in frame at the C terminus of a humanized Renilla GFP (rGFP), were synthesized as gBlocks gene fragments.
Bioluminescence Resonance Energy Transfer (BRET) Measurement—HEK293 cells were transfected with GPR84-Rluc8 and rGFP-FYVE for the EEs trafficking biosensor or with GPR84, Gαi2-Rluc8, GFP10-Gγ2, and Gβ1 for the Gαi biosensor. The following day, transiently transfected cells were seeded in 96-well white clear bottom microplates coated with poly-D-lysine and left in culture for 24 hours. Cells were washed once with Tyrode's buffer (140 mmol/L NaCl, 1 mmol/L CaCl2, 2.7 mmol/L KCl, 0.49 mmol/L MgCl2, 0.37 mmol/L NaH2PO4, 5.6 mmol/L glucose, 12 mmol/L NaHCO3, and 25 mmol/L HEPES, pH 7.5) before performing assays in Tyrode's buffer. Test compounds were incubated with cells for 5 (Gαi) or 15 (EEs) minutes at 37° C. before addition of 200 nmol/L of the GPR84 agonist ZQ-16 (2-(Hexylthio)-6-hydroxy-4(3H)-pyrimidinone) for 5 minutes at room temperature (Gαi) or 30 minutes at 37° C. (EEs). The Rluc8 substrate coelenterazine 400A (Prolume, Lakeside, AZ) was added at a final concentration of 5 μmol/L and BRET readings were collected using an Infinite M1000 microplate reader (Tecan, Morrisville, NC). BRET^2 readings between Rluc8 and GFP10 or rGFP were collected by sequential integration of the signals detected in the 370 to 450 nm (Rluc8) and 510 to 540 nm (GFP10, rGFP) windows. The BRET signal was calculated as the ratio of light emitted by acceptor (GFP10, rGFP) over the light emitted by donor (Rluc8). The values were corrected to net BRET by subtracting the background BRET signal obtained in cells transfected with Rluc8 constructs alone. Ligand-promoted net BRET values were calculated by subtracting vehicle-induced net BRET from ligand-induced net BRET.

T1 sequence (Q9NQS5 whole entry): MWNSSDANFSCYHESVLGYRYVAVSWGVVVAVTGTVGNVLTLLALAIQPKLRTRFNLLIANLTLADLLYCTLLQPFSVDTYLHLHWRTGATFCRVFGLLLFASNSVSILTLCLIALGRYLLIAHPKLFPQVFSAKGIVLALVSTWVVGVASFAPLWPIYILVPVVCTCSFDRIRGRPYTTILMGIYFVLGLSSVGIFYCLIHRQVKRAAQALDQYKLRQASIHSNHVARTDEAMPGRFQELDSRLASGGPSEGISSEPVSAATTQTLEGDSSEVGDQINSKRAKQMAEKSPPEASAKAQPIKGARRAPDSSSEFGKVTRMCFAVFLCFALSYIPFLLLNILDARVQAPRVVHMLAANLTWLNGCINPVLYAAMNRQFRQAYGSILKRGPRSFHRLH

Structure (SMILES)	inhibition at 10 µM [%]
COc1cc(C#CC2CC2)ccc1-c1cn(CC2CCCCO2)nn1 (centres unmarked) [Compound I-82]	25 to 50
C(#CC1CC1)c1ccc(-c2cn(CCOCC3COCCO3)nn2)cc1 (centres unmarked) [Compound I-93]	≤ 25
Cc1ccc(-c2cccc(-c3nnn(CC4CCCCO4)c3C)c2)cn1 (centres unmarked) [Compound I-95]	≤ 25
CC(=O)N1CCOC(Cn2cc(-c3ccc(C#CC4CC4)cc3C)nn2)C1 (centres unmarked) [Compound I-96]	≤ 25
C(#CC1CC1)c1ccc(-c2cn(CC3OCCCO3)nn2)cc1 [Compound I-102]	25 to 50
Cc1cc(NC(=O)C2CC2)ccc1-c1cn(CC2CCCCO2)nn1 (centres unmarked) [Compound I-109]	25 to 50
Cc1cc(NC(=O)N2CCCC2)ccc1-c1cn(CC2CCCCO2)nn1 (centres unmarked) [Compound I-110]	≤ 25
Cc1cc(N2CCN(C)CC2)ccc1-c1cn(C[C@H]2CCCCO2)nn1 [Compound I-111]	≤ 25
CC(=O)N1CCN(c2ccc(-c3cn(CC4CCCCO4)nn3)c(C)c2)CC1 (centres unmarked) [Compound I-112]	≤ 25
Cc1cc(N2CC3(COC3)C2)ccc1-c1cn(CC2CCCCO2)nn1 (centres unmarked) [Compound I-113]	25 to 50
Cc1cc(N2CC(N(C)C)C2)ccc1-c1cn(CC2CCCCO2)nn1 (centres unmarked) [Compound I-114]	≤ 25
Cc1c(-c2ccc(C#CC3CC3)cc2)nnn1CC1CCCO1 (centres unmarked) [Compound I-115]	≤ 25
Cc1cc(C#CC2CC2)sc1-c1cn(CC2CCCCO2)nn1 (centres unmarked) [Compound I-116]	25 to 50
CC(=O)c1cc(C#CC2CC2)ccc1-c1cn(CC2CCCCO2)nn1 (centres unmarked) [Compound I-124]	25 to 50
COc1ccc(C#CC2CC2)cc1-c1cn(CC2CCCCO2)nn1 (centres unmarked) [Compound I-125]	≤ 25
CNC1CCN(c2ccc(-c3cn(CC4CCCCO4)nn3)c(C)c2)CC1 (centres unmarked) [Compound I-128]	≤ 25
Cc1cc(N2CCC(N(C)C)CC2)ccc1-c1cn(CC2CCCCO2)nn1 (centres unmarked) [Compound I-129]	≤ 25
Cc1cc(NS(C)(=O)=O)ccc1-c1cn(CC2CCCCO2)nn1 (centres unmarked) [Compound I-130]	≤ 25
N#Cc1cc(C#CC2CC2)ccc1-c1cn(CC2CCCCO2)nn1 (centres unmarked) [Compound I-133]	50 to 75
Clc1ccc(C#CC2CC2)cc1-c1cn(CC2CCCCO2)nn1 (centres unmarked) [Compound I-134]	≤ 25
Cc1cc(N2CC3(CN(C)C3)C2)ccc1-c1cn(CC2CCCCO2)nn1 (centres unmarked) [Compound I-145]	≤ 25
Cc1cc(N2CC3(CCCN3)C2)ccc1-c1cn(CC2CCCCO2)nn1 (centres unmarked) [Compound I-147]	≤ 25
Cc1cc(N2CC3(CCCN3C)C2)ccc1-c1cn(CC2CCCCO2)nn1 (centres unmarked) [Compound I-148]	50 to 75
Cc1cc(N2CCCC23CNC3)ccc1-c1cn(CC2CCCCO2)nn1 (centres unmarked) [Compound I-150]	≤ 25
Cc1cc(N2CCCC23CN(C)C3)ccc1-c1cn(CC2CCCCO2)nn1 (centres unmarked) [Compound I-151]	≤ 25
Cc1cc(N2CCCC(N(C)C)C2)ccc1-c1cn(CC2CCCCO2)nn1 (centres unmarked) [Compound I-153]	≤ 25
Cc1cc(N2CC3(CCNCC3)C2)ccc1-c1cn(CC2CCCCO2)nn1 (centres unmarked) [Compound I-154]	25 to 50
Cc1cc(N2CC3(CCN(C)CC3)C2)ccc1-c1cn(CC2CCCCO2)nn1 (centres unmarked) [Compound I-155]	≤ 25

Other lines, results leading:

inhibition at 10 µM [%]	Structure (SMILES)
> 75	Cc1cc(C#CCNc2ccccc2)ccc1-c1cn(CC2CCCO2)nn1 (centres unmarked) [Compound I-62]
≤ 25	CC(C)(C)OCCn1cc(-c2ccc(C#CC3CC3)cc2)nn1 [Compound I-97]
≤ 25	Cc1cc(C#CC2CC2)ccc1-c1cn(CCOC(C)(C)C)nn1 [Compound I-98]
≤ 25	CC(=O)N1CCOCC1Cn1cc(-c2ccc(C#CC3CC3)cc2C)nn1 (centres unmarked) [Compound I-99]
≤ 25	Cc1cc(C#CC2CC2)ccc1-c1cn(CC2OCc3ccccc32)nn1 (centres unmarked) [Compound I-100]
25 to 50	Cc1cc(C#CC2CC2)ccc1-c1cn(CC2COc3ccccc3O2)nn1 (centres unmarked) [Compound I-101]
≤ 25	COCCn1cc(-c2ccc(C#CC3CC3)cc2)nn1 [Compound I-103]
≤ 25	COCCn1cc(-c2ccc(C#CC3CC3)cc2C)nn1 [Compound I-104]
≤ 25	COC(=O)N1CCOC(Cn2cc(-c3ccc(C#CC4CC4)cc3C)nn2)C1 (centres unmarked) [Compound I-105]
≤ 25	COC(=O)N1CCOCC1Cn1cc(-c2ccc(C#CC3CC3)cc2C)nn1 (centres unmarked) [Compound I-106]
25 to 50	Cc1cc(C#CCNc2ccncc2)ccc1-c1cn(CC2CCCCO2)nn1 (centres unmarked) [Compound I-122]
≤ 25	Cc1cc(C#CC2CC2)ccc1-c1cn(CC2CCCCN2)nn1 (centres unmarked) [Compound I-126]
≤ 25	Cc1cc(C#CCNC(C)C)ccc1-c1cn(CC2CCCCO2)nn1 (centres unmarked) [Compound I-131]
25 to 50	COC(C)Cn1cc(-c2ccc(C#CC3CC3)cc2C)nn1 (centres unmarked) [Compound I-132]
≤ 25	Cc1cc(C#CCNc2ccccc2)ccc1-c1cn(CCOc2ccccn2)nn1 [Compound I-135]
≤ 25	Cc1cc(C#CCNc2ccccc2)ccc1-c1cn(CCOc2cccnc2)nn1 [Compound I-136]
≤ 25	Cc1cc(C#CCNc2ccccc2)ccc1-c1cn(Cc2ccccn2)nn1 [Compound I-137]
≤ 25	CC(=O)N1CCCCC1Cn1cc(-c2ccc(C#CC3CC3)cc2C)nn1 (centres unmarked) [Compound I-139]
25 to 50	Cc1cc(N2CCN(Cc3ccccc3)CC2)ccc1-c1cn(CC2CCCCO2)nn1 (centres unmarked) [Compound I-140]
≤ 25	Cc1cc(N2CCC(N(C)Cc3ccccc3)CC2)ccc1-c1cn(CC2CCCCO2)nn1 (centres unmarked) [Compound I-141]
≤ 25	Cc1cc(C#CC2CC2)ccc1-c1cn(Cc2ncco2)nn1 [Compound I-143]
25 to 50	Cc1cc(N2CC3(CN(Cc4ccccc4)C3)C2)ccc1-c1cn(CC2CCCCO2)nn1 (centres unmarked) [Compound I-146]
50 to 75	Cc1cc(N2CC3(CCN(Cc4ccccc4)CC3)C2)ccc1-c1cn(CC2CCCCO2)nn1 (centres unmarked) [Compound I-156]

Same assay, conditions: HEK293, single concentration 25 μM (designated I)

Structure (SMILES)	inhibition at 25 µM [%]
Cc1cc(CN2CCOCC2)ccc1-c1cn(CC2CCCCO2)nn1 (centres unmarked) [Compound I-74]	25 to 50
Cc1c(C#CC2CC2)cccc1-c1cn(CC2CCCCO2)nn1 (centres unmarked) [Compound I-80]	≤ 25
C(#CC1CC1)c1ccc(-c2cn(CCOCC3CCCCO3)nn2)cc1 (centres unmarked) [Compound I-83]	25 to 50

Other lines, results leading:

inhibition at 25 µM [%]	Structure (SMILES)
≤ 25	Cc1cc(C#CC2CC2)ccc1-c1cn(CC(C)Oc2ccccc2)nn1 (centres unmarked) [Compound I-72]
≤ 25	COC(Cn1cc(-c2ccc(C#CC3CC3)cc2C)nn1)c1ccccc1 (centres unmarked) [Compound I-73]
25 to 50	Cc1cc(C#CC2CC2)ccc1-c1cn(CCOCC2CCCCO2)nn1 (centres unmarked) [Compound I-85]
25 to 50	Cc1cc(C#CC2CC2)ccc1-c1cn(CCOCC2COCCO2)nn1 (centres unmarked) [Compound I-92]

Same assay, conditions: HEK293 cells, antagonism of 200 nmol/L ZQ-16

IC50 [µM]	Structure (SMILES)
> 3	Cc1cc(C#CCNc2ccccc2)ccc1-c1cn(CC2CCCO2)nn1 (centres unmarked) [Compound I-62]
1 to 3	Cc1cc(C#CC(C)O)ccc1-c1cn(CC2CCCCO2)nn1 (centres unmarked) [Compound I-78]
> 3	COc1cc(C#CC2CC2)ccc1-c1cn(CC2CCCCO2)nn1 (centres unmarked) [Compound I-82]
1 to 3	Cc1cc(C#CC2CC2)ccc1-c1cn(CC2OCCCO2)nn1 [Compound I-91]
